# In patent publication US9796777B2, “Methods of treating malignant tumors” (Canimguide Therapeutics AB, priority 2007, dated 2017):
# Key:
# PBMC [1] = assay: LPS-induced IL-6 production by PBMC, effect of peptides; assay type: cell-based, human
# Method: 100 μl of culture medium consisting of RPMI1640 supplemented with 200 IU/ml penicillin, 200 μg/ml streptomycin, 4 mM L-glutamine (Sigma Chemical, Mo., US) and 20% fresh heat-inactivated autologous serum were added to un-coated or -pre-coated microtiter plates followed by 100 μl of PBMC suspension (5×10^4 lymphocytes) in RPMI/2% HSA with peptides at the indicated concentrations. Lipoplysaccharide (LPS, Sigma Chemical Co, MO, US) was added at a final concentration of 0.05 ng/ml. […] All assay conditions were set up in triplicate wells. Supernatants (SNs) were harvested after 24 hrs and residual cells were removed by centrifugation in a refrigerated centrifuge (Beckman) at 2600×g for 5 minutes. SNs were frozen and stored at −70° C. IL-6 in cell culture SNs was measured by ELISA using the DuoSet® ELISA development kit for human IL-6 (R&D Systems Europe, Ltd., Abingdon, UK) following the manufacturer's recommended procedures. The lower limit of detection was 3.1 pg/ml. Samples were analysed as mean of triplicate wells.
# [2] = target: T1, β2-integrin LFA-1 (CD11a) (Homo sapiens, UniProt P20701); assay: Immunocytochemical staining of PBMC and THP-1 with anti-integrin (CD11a) antibody with or without albumin peptides; assay type: binding; conditions: monocytic cell line THP-1; peptide 40 μg/ml preincubation
# T1 construct: endogenous in cells; host or cells: human PBMC (healthy controls, cancer patients) and THP-1 monocytic cell line (ATCC)
# T1 sequence (P20701 26-1170): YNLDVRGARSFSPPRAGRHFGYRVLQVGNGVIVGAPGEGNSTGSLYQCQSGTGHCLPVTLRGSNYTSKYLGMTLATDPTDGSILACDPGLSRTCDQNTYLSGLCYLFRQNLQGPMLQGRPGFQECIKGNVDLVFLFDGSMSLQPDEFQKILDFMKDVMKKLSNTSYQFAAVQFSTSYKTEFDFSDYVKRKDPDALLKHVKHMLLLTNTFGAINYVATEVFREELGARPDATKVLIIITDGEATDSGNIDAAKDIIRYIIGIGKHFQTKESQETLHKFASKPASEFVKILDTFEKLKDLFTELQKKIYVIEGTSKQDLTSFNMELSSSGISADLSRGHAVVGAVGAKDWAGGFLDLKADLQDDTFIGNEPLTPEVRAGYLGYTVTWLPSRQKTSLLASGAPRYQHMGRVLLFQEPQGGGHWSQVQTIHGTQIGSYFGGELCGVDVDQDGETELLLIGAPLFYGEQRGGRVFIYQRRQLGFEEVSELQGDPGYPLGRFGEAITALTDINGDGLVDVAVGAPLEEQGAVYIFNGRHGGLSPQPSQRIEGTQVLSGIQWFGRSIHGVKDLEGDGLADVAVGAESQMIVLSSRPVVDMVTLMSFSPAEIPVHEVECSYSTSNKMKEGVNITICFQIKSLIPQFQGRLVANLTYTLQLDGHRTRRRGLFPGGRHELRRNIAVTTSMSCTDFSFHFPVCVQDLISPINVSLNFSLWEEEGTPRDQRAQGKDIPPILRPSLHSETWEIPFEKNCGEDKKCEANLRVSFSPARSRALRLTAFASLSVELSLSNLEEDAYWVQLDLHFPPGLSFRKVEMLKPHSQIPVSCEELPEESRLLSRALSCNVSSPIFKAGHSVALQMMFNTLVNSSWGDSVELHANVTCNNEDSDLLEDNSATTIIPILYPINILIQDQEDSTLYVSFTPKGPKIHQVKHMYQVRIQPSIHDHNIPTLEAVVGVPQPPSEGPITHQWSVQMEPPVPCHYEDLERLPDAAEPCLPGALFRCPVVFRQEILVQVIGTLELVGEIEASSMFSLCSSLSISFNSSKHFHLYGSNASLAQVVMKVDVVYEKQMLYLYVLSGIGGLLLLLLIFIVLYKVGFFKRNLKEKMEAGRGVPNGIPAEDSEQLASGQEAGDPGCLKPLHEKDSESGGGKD
# T1 sequence (P05107 23-769 partner): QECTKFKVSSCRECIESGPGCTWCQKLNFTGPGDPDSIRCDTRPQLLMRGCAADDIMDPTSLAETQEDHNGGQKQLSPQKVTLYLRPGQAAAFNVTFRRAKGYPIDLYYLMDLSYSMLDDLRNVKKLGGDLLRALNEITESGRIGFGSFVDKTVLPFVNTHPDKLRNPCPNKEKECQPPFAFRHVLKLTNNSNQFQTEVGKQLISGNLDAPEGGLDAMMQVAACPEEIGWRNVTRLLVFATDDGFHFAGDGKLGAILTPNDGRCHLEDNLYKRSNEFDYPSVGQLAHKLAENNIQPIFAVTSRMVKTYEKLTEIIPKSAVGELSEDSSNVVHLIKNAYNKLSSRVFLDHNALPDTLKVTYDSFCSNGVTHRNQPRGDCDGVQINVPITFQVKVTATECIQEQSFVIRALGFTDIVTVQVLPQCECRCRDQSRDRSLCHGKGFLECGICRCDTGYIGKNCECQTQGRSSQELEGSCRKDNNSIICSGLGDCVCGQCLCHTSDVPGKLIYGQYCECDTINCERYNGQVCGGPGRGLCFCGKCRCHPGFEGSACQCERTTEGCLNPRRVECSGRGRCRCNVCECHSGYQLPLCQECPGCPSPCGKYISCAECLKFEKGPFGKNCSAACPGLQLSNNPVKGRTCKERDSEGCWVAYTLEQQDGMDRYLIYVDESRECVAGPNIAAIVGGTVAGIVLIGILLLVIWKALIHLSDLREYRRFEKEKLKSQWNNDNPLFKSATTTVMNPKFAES
# Method: Cytospin preparations of mononuclear blood cells from healthy controls, cancer patients and a monocytic cell line, THP-1, were prepared (as described under materials and methods), dried and stored at −70° C. In the immunocytological staining, unspecific staining was blocked by incubation with 10% human AB serum. Some of the slides were preincubated for 60 minutes with albumin peptides at a concentration of 40 μg/ml, added to this 10% AB serum, as indicated in the FIG. 8 A-F. The staining procedure was then continued as described in material and methods. The staining intensity of slides stained with and without preincubation with the peptides was recorded semi quantitatively using a standard light microscope.
# PBMC were separated as described above. Cultured THP-1 cells (obtained from the American Type Culture Collection through LGL Nordic AB, Sweden) were carefully washed and suspended in RPMI1640. PBMC and THP-1 were immediately spun down on pre-cleaned microscope slides in a Shandon Cytospin (Shandon Scientific Ltd, UK) at 1000 RPM for 7 min at 2.5 or 5×10^4 cells per slide. The slides were left to dry at room temperature over night, after which they were wrapped in parafilm and stored at −70° C. Immediately before use, the cytospins were thawed and fixed with acetone for 5 min at room temperature. The cytospins were first blocked with 10% normal human AB-serum with and without albumin peptides (40 ␣g/ml) for 1 h before staining. Primary antibody, consisting of a monoclonal mouse anti-human CD11a (clone HI111, BD Biosciences) diluted in Tris buffered saline (TBS, pH 7.6) at 5 μg/ml (THP-1) or 1 µg/ml (PBMC), was added. The slides were incubated for 30 min and then washed in TBS followed by Envision-Alkaline Phosphatase (Dako Norden A/S, Denmark) for 30 min. After additional washing in TBS, the slides were incubated in alkaline phoshatase substrate consisting of Fast Red TR salt (Sigma), naphtol AS-MX (Sigma) and 5 mM levamisol (Sigma) to block endogenous alkaline phosphatase activity, for 20 min followed by washing in TBS. They were then counterstained in Mayer's haematoxylin for 1 minute and mounted in Glycergel (Dako Norden NS). Monoclonal mouse IgG1 against an irrelevant antigen (Aspergillus niger glukosoxidase, Dako Norden NS) was used as a negative control. All incubations were performed at room temperature in a moist chamber.
# FIG. 24. Inhibition of the binding of anti-LFA-1, mab HI111, to mononuclear blood cells by 3028 peptide and fragments 3325 and 3218. A standard immunohistochemical staining procedure using acetone fixation, 10% human AB-serum for blocking, incubation with HI 111 and a secondary antibody (Ultravision, an alkaline phosphate conjugated polymer attached to Fab-fragments of goat anti-mouse Ig), followed by development with Fast Red. The slides were then mounted in Glycergel. Preincubation with peptides added to the AB serum was as follows: A. No peptide added, B. peptide 3028, C. The C-terminal part (3218), and D. The N-terminal part (3325).
# mAb A = conditions: second trypsination of <30 kD fragments eluted from mAb A at pH 2.7
# Method: MALDI epitope mapping of mAb A based on antibody protection of proteolysis was repeated. This time a slightly different approach was used. Denatured HSA was incubated with mAb A. Albumin not bound by the antibody, was removed from the sample by size exclusion on an ultra filter. The remaining free mabs and the complexes of mab-albumin was then digested with trypsin (sequences of the albumin molecule to which mab is bound should resist the trypsin digestion). Small cleaved fragments of mab and unprotected albumin was then removed from the sample by ultrafiltration (30 kD). The complexes of mAb and bound albumin fragments were dissociated by lowering the pH to 2.7. Again ultrafiltration at 30 kD was performed to separate whole mAb from albumin fragments smaller than 30 kD.
# Denatured HSA (80 μg) was incubated with mAb A (10 μg) in PBS for 18 h at room temperature. […] The retentate was diluted in 25 mM NH4HCO3 and again centrifuged as described above. The retentate was transferred to a sterile eppendorf microcentrifuge tube in 0.4 ml 25 mM NH4HCO3 and 0.4 μg sequencing grade modified trypsin (Promega) was added. Digestion was carried out at 37° C. over night with gentle agitation. Trypsin and free (not antibody-bound) albumin fragments were removed by ultrafiltration on a Amicon Ultra-4 filter (mw cut-off 30 000 Da, Millipore Co.) for 5 min at 3000 rpm. This was repeated three times. The retentate was then transferred to a new ultra filter where the mAb A was disassociated from bound albumin by the addition of 600 μl 0.1 M glycine-HCl, pH 2.7, for 30 min at room temperature after which the ultra filter was centrifuged for 10 min at 3000 rpm. The filtrate was transferred to a sterile Eppendorf microcentrifuge tube and neutralized with Tris-HCl, pH 9. The sample was then immediately dried over night in a SpeedVac vacuum concentrator. The samples were then dissolved in 16 μl of sequencing grade modified trypsin (at 5 μg/ml) (Promega) and incubated at 37° C. for 18 hours. Zip Tip pipette tips (Millipore) containing C18 chromatorgraphy media were used for desalting before the sample was analysed by MALDI TOF ms (see below).
# 1 μl of each sample of the tryptic digestion was mixed with 1 μl of a saturated solution of α-cyano-4-hydroxycinamic acid ([…]) in 70% acetonitrile/0.3% trifluoro acetic acid. 1 μl of that mixture was spotted on a stainless steel target plate and analysed using MALDI-TOF ms (Voyager-DE PRO, Applied Biosystems, CA, US) equipped with a 337 nm N2 laser. Database searches for masses corresponding to human serum albumin in the resulting spectra were performed in NCBI or SwissProt with MS-Fit as search engine.
# [3] = system: cell surface receptors of immune cells (ACS); assay: Adsorption of enzyme fragmented dHSA on affinity column with biotinylated cell surface proteins (ACS), MALDI-TOF ms; assay type: binding, human
# Method: Based on the observation that immunoregulatory peptide sequences are present in serum albumin, there is the possibility that other sequences than the epitope of mAb A have immunoregulatory function. Therefore an artificial cell surface (ACS) was prepared as described in materials and methods. […]
# To remove unfragmented albumin and enzyme, the sample was ultra filtered through an Amicon Ultra 4 (mw cut-off of 5000) or a Centriplus (mw cut-off 10000) centrifugal filter (Millipore AB, Solna, Sweden). The filtrate, containing fragmented dHSA without enzymes, was collected and diluted with PBS with Ca and Mg (GIBCO).
# Buffy coats generated from 450 ml blood each was collected from 4 healthy donors. Erythrocytes were removed by sedimentation on 2% dextran T500 solution (Amersham Pharmacia Biotech AB, Uppsala Sweden) in 0.9% NaCl. Mononuclear cells (PBMC) were then isolated by Ficoll-Paque Plus (GE Healthcare Bioscience AB Sweden) density gradient centrifugation. The PBMC were then suspended in phosphate buffered saline (PBS) containing Ca and Mg (GIBCO) at a concentration of 10×10^6/ml. EZ Link Sulfo-NHS-biotin (Pierce USA) was added at a final concentration of 0.2 mg/ml and the mixture incubated on a shaker at room temperature for 10 min. Excess biotin was then removed by washing the PBMC in PBS. Biotinylated PBMC were then lysed by adding 1.0 ml ice-cold lysing buffer (50 mM Tris-HCL, pH 7.5, with 0.15 M NaCl, 5 mM MgCl2 containing 100 mM Octyl glucoside and 1 mM Phenylmethylsulfonyl fluoride) per 2×10^7 pelleted cells with gentle shaking, then incubated for 30 min. on ice. Debris was removed by centrifugation at 5000×g at 4° C. for 10 min and the supernatants was collected and pooled from all four donors. The lysate was then stored at −70° C. in polypropylene plastic tubes.
# This amount of lysate corresponds to 36×10^7 mononuclear cells. It was added to a 1 ml Hitrap Streptavidin HP affinity column (Amersham Biosciences). To block possible remaining free biotin, 5 ml of 0.1 M glycine (Sigma) was added to the column. Unsaturated streptavidin on the column was then reacted with 150 ug biotin (Sigma) in binding buffer. The column was carefully washed with PBS and stored in PBS with 0.1% NaN3 at 4° C. until use.
# 27 ml biotinylated cell lysate in binding buffer (corresponding to 54×10^7 mononuclear cells) was added to 1.5 ml washed Streptavidin Sepharose HP (Amersham Biosciences). To block possible remaining free biotin, 25 ml of 0.1 M glycine (Sigma) was added to the Streptavidin Sepharose. Unsaturated streptavidin was then reacted with 225 μg biotin (Sigma) in binding buffer. The Streptavidin Sepharose was carefully washed in PBS. One ml of the biotinylated cell lysate coupled Streptavidin Sepharose was then packed in an empty column (Tricorn Empty High Performance Column, Amersham Bioscience) and washed with phosphate buffered saline (PBS) containing Ca and Mg (GIBCO).
# The flow-through was collected with consideration taken to void volume and dilution of adsorbed sample by collecting in small portions of 0.2 ml. Thirty ul of each sample, including a control sample that has not been adsorbed, were dried in a Speed-Vac centrifuge.
# Dried samples were reconstituted in 10 ul of 0.1% TFA. Zip Tip pipette tips (Millipore, USA) containing C18 reversed-phase media were used for desalting reconstituted samples. […] For the analysis of samples in the mass range 1500-9000 Da, one μl of each Zip Tip eluted sample was mixed with 1 μl of sinapinic acid ([…]). […] Mass identity search of resulting spectra was performed in the SwissProt or NCBI databases using MS-Fit.
# PBMC [4] = assay: IL-2 induced proliferation of PBMC with albumin peptides in coated and uncoated tissue culture plates; assay type: cell-based, human; conditions: PBMC from healthy individuals; peptide 5 μg/ml final; 7 days
# Method: A mixture of 1 mg/ml IgG in a solution of 9 mg/ml HSA in RPMI (HSA/IgG) was also prepared. 200 μl of HSA or HSA/IgG were then added to each well of the plate. The plates were incubated at 4° C. for 30 minutes after which the wells were washed twice with 200 μl of RPMI1640. The coated plates were used immediately. […] PBMC, isolated from healthy individuals, were diluted in RPMI/2% HSA and peptides were added directly to the cell suspension at a concentration of 10 μg/ml.
# [5] = Table 5 A, peptides generated by trypsin degradation of dHSA
Substance,Peak area (mAb A),"Per cent adsorbed [3, 5] [Per cent]",also measured
KLDELRDEGKAS [peptide 2606],–,–,"effect on LPS induced IL-6 production (PBMC [1]; PBMCs from one healthy control, lowest peptide concentration): inhibitory; effect on binding of the mAb to LFA-1 [2]: clearly enhanced"
"YLYEIAR [162-168, tryptic peptide of dHSA]",1035,0.34,–
"LCTVATLR [098-105, tryptic peptide of dHSA]",744,0.35,–
KVPQVSTPTLVEVSR [compound 3029],–,0.64,"effect on LPS induced IL-6 production (PBMC [1]; three cancer patients): essentially no effects; effect on LPS induced IL-6 production (PBMC [1]; two healthy controls): slight stimulatory effect in only one of the controls; Per cent adsorbed ([3]; Table 5 B, trypsin peptides selected for synthesis): 0.64 Per cent; effect on IL-2 induced proliferation (PBMC [4]): no statistically significant activity"
"LDELRDEGK [206-214, tryptic peptide of dHSA]",644,0.02,–
"FQNALLVR [427-434, tryptic peptide of dHSA]",1345,0.41,–
"LVNEVTEFAK [066-075, tryptic peptide of dHSA]",1918,-0.02,–
"CCTESLVNR [500-508, tryptic peptide of dHSA]",119,0.26,–
LSQRFPK,481,–,–
DDNPNLPR [tryptic peptide of dHSA],534,0.01,–
